Measured values reported in PMC10539733, “Fluorine NMR study of proline-rich sequences using fluoroprolines” (Magnetic resonance, 2021).
Values joined by “and” are separate entries in the source; they are usually repeats but may differ in a detail not shown here. Identical values can stand only once. Like-named read-outs stand apart in the source and are kept apart here. Each block holds one molecule with its values, some of them ahead of it. Square brackets hold non-standard residues; d marks the D form. Ends that are not written are not given here. Peptide text beside a SMILES is read from it. Pro(trans-4-F) = O=C(O)[C@@H]1C[C@@H](F)CN1; Pro(cis-4-F) = O=C(O)[C@@H]1C[C@H](F)CN1

Assays:
Vinexin β SH3.3 domain [1] = target: T1, Vinexin β SH3.3 domain (Homo sapiens, UniProt O60504); test: 19F line width (apparent transverse relaxation) analysis of binding kinetics during titration; details: fast exchange approximation, 298 K
T1 construct: The Vinexin β SH3.3 was obtained using recombinant expression of a glutathione-S-transferase (GST) fusion protein; GST (N, cleaved yes); made in house; host or cells: Escherichia coli (pGEX plasmids)
T1 sequence (O60504 612-671 limits assumed): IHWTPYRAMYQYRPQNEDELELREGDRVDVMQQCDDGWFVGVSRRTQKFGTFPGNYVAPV
Description: The exchange line broadening during the titration experiment also reports on the binding kinetics. Thus, the major ^19 F peaks were fitted using a Lorentzian line shape and the line widths obtained in this way provide an estimate of the apparent transverse relaxation constant R2‡ as a function of peptide concentration (Fig. 7b and c), which can be used to derive the binding kinetics. […]
Processing of 1D ^19 F spectra and quantification were performed using an open-source Python package dedicated to Fourier spectroscopies called “Spectrometry Processing Innovative Kernel” (SPIKE) (Chiron et al., 2016). […] Line fitting was done using the least-square minimizer of the Scipy optimize toolbox to find the optimal set of the signal parameters minimizing the squared differences between the experimental and calculated spectra. […]
Titrations were performed by successive addition of stock peptide solutions to a sample of SH3 protein at 314 µM in a 3 mm NMR tube. […] For every titration point, a 1D ^19 F spectrum and a ^1 H– ^15 N HSQC were recorded at 298K on the same spectrometer, taking advantage of the QCI-F probe. The ^1 H– ^15 N HSQC was recorded using the standard pulse sequence and a 3-9-19 WATERGATE water suppression element. The 200 points were recorded in the indirect dimension to achieve a final resolution of 7.0 and 18.8 Hz per point in the acquisition and indirect dimensions, respectively. […]

Vinexin β SH3.3 domain [2] = target: T1, Vinexin β SH3.3 domain; test: NMR titration, 1H-15N HSQC chemical shift perturbations of 15N-labelled SH3 domain; format: binding
Description: In order to measure the binding affinities between the Vinexin β SH3.3 domain and the model peptides, a titration experiment was performed where increasing amounts of peptide were added to a solution of ^15 N-labelled SH3 domain. Apart from MpRS and MpSR peptides, a titration was also performed with a non-fluorinated reference peptide. Just as for most SH3–PRM interaction studies, a gradual frequency shift of a subset of ^1 H– ^15 N correlation peaks in the ^1 H– ^15 N HSQC spectra was observed, indicative of fast exchange between bound and free states of the protein (Fig. 6a). Under this exchange regime, the chemical shifts provide an accurate measure of the bound protein fraction, enabling the determination of an equilibrium dissociation constant Kd (vide infra).
The MpRS and MpSR peptides were produced by solid-phase synthesis using fluorenylmethyloxycarbonyl (Fmoc) amino acids using a model 431A peptide synthesizer from Applied Biosystems (Foster City, CA, USA). Fmoc-protected (4 R )- and (4 S )-FPro amino acids were purchased from Bachem SA. Peptides were purified by reversed-phase HPLC and checked by electrospray ionization and time of flight mass spectrometry (ESI-TOF). The Vinexin β SH3.3 was obtained using recombinant expression of a glutathione-S-transferase (GST) fusion protein in Escherichia coli using pGEX plasmids (Lalevée et al., 2010). After thrombin cleavage, the protein was purified using size-exclusion chromatography and eluted with phosphate buffer (40 mM phosphate, NaCl 100 mM, DTT 2 mM, pH 7). Before titration experiments, a dialysis was performed using 1 and 3 kDa cut-off membrane for the peptide and the protein, respectively, and a common dialysis bath containing the buffer used in interaction experiments. Protein concentrations were determined by measuring the optical density (OD) at 280 nm (molar absorption coefficient 11 460 M ^-1 cm ^-1 ). Peptide concentrations were measured by ^1 H NMR by comparing the integrals of peptide resonances with those of tryptophan of known concentration in a sample containing small amounts (10–30 µM ) of both compounds in D 2 O as described (Kohler et al., 2015). For assignments, lyophilized powder of MpRS and MpSR peptides were dissolved in 170 µL of D 2 O for a final concentration of 1 mM in 3 mm tubes.
Titrations were performed by successive addition of stock peptide solutions to a sample of SH3 protein at 314 µM in a 3 mm NMR tube. In order to reduce the dilution of the initial protein solution and keep the aliquot volumes within values compatible with low pipetting errors (1 to 3 µL ), initial aliquots were added using stock solutions diluted by a factor of 2. The concentrations of the stock solutions were 5.1 and 5.7 mM for MpSR and MpRS, respectively. For every titration point, a 1D ^19 F spectrum and a ^1 H– ^15 N HSQC were recorded at 298K on the same spectrometer, taking advantage of the QCI-F probe. The ^1 H– ^15 N HSQC was recorded using the standard pulse sequence and a 3-9-19 WATERGATE water suppression element. The 200 points were recorded in the indirect dimension to achieve a final resolution of 7.0 and 18.8 Hz per point in the acquisition and indirect dimensions, respectively. The relaxation delay was set to 1 s resulting in a total acquisition time of 16 min. The 1D ^19 F spectra were recorded with a spectral width of 22.522 kHz. The number of scans was adapted to achieve a sufficient signal-to-noise ratio for each concentration of peptide. For the first titration point, at a peptide concentration of 50 µM , 1600 scans were recorded for a total acquisition time of 1 h and 6 min, while 250 scans (10 min acquisition time) were used for the large peptide concentrations.
The composite chemical shift was calculated using […], where ΔδN and ΔδH are the ^15 N and proton chemical shift differences measured between the free protein and the protein in the presence of a given amount of peptide. […]

[3] = target: T2, Vinexin β SH3.3 domain (third SH3 domain of the Vinexin β protein) (UniProt O60504 612-671); test: NMR titration; 19F line widths (apparent R2) of the peptide against peptide concentration during the titration, fast-exchange approximation; kon fitted independently for each 19F signal, Kd taken from the shift fit; details: both partners purified
T2 construct: Vinexin β, third SH3 domain (SH3.3); 15N-labelled for the titrations; source: E. coli, GST fusion protein (pGEX plasmids), thrombin cleavage, purified (size-exclusion chromatography)
T2 sequence (looked up): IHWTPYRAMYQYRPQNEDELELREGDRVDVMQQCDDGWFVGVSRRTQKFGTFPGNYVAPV

[4] = target: T2, Vinexin β SH3.3 domain (third SH3 …); test: NMR titration; same kind of titration, 298 K; only the 1H-15N chemical shift perturbations of the SH3 domain fitted, 1:1 model; details: both partners purified
[5] = target: T2, Vinexin β SH3.3 domain (third SH3 …); test: NMR titration; peptide stock added stepwise to 15N-labelled SH3 at 314 µM in a 3 mm tube, 298 K; 19F shifts of the peptide and 1H/15N shifts of the SH3 fitted simultaneously; 1:1 and 1:2 models compared; details: both partners purified

B1: MpSR peptide (peptide)
peptide: PPP[Pro(cis-4-F)]PSP[Pro(trans-4-F)]PPPRVYK
notes: P at 4 and 8 stand for fluoroprolines; Two segments of five prolines separated by one serine, followed by RVYK; source: synthetic peptide (Fmoc solid-phase synthesis, reversed-phase HPLC)
kon [3]: 9e+07 M⁻¹ s⁻¹ and 1.2e+08 M⁻¹ s⁻¹ | Kd [4]: 75 µM | Kd [5]: 96 ± 30 µM | stoichiometry N [5]: 1

B3: MpRS peptide (peptide)
peptide: PPP[Pro(trans-4-F)]PSP[Pro(cis-4-F)]PPPRVYK
notes: P at 4 and 8 stand for fluoroprolines; source: synthetic peptide (Fmoc solid-phase synthesis, reversed-phase HPLC)
Kd [4]: 220 µM | Kd [5]: 273 ± 30 µM | stoichiometry N [5]: 1

Continued, values first:

kon (Vinexin β SH3.3 domain [1]; from 19F line widths of (4 R )-FPro8 signal, read-out: association kinetics constant kon, (4 R )-FPro8 signal): 1.2e+08 M⁻¹ s⁻¹ | kon (Vinexin β SH3.3 domain [1]; from 19F line widths of (4 S )-FPro4 signal, read-out: association kinetics constant kon, (4 S )-FPro4 signal): 9e+07 M⁻¹ s⁻¹
Molecule: CC(C)[C@H](NC(=O)[C@H](CCCNC(=N)N)NC(=O)[C@@H]1CCCN1C(=O)[C@@H]1CCCN1C(=O)[C@@H]1CCCN1C(=O)[C@@H]1C[C@@H](F)CN1C(=O)[C@@H]1CCCN1C(=O)[C@H](CO)NC(=O)[C@@H]1CCCN1C(=O)[C@@H]1C[C@H](F)CN1C(=O)[C@@H]1CCCN1C(=O)[C@@H]1CCCN1C(=O)[C@@H]1CCCN1)C(=O)N[C@@H](Cc1ccc(O)cc1)C(=O)N[C@@H](CCCCN)C(=O)O [MpSR] (H-PPP[Pro(cis-4-F)]PSP[Pro(trans-4-F)]PPPRVYK-OH)

1H-15N composite chemical shift perturbation, Asn 15 (Vinexin β SH3.3 domain [2]; Vinexin β residue Asn 15): 1.093 | 1H-15N composite chemical shift perturbation, Asp 17 (Vinexin β SH3.3 domain [2]; Vinexin β residue Asp 17): 2.276 | 1H-15N composite chemical shift perturbation, Gln 14 (Vinexin β SH3.3 domain [2]; Vinexin β residue Gln 14): 1.949 | 1H-15N composite chemical shift perturbation, Gly 49 (Vinexin β SH3.3 domain [2]; Vinexin β residue Gly 49): 0.812 | 1H-15N composite chemical shift perturbation, Leu 21 (Vinexin β SH3.3 domain [2]; Vinexin β residue Leu 21): 0.988 | 1H-15N composite chemical shift perturbation, Thr 50 (Vinexin β SH3.3 domain [2]; Vinexin β residue Thr 50): 1.881 | 1H-15N composite chemical shift perturbation, Trp 37 (Vinexin β SH3.3 domain [2]; Vinexin β residue Trp 37): 2.011 | 1H-15N composite chemical shift perturbation, Val 39 (Vinexin β SH3.3 domain [2]; Vinexin β residue Val 39): 3.214 | 1H-15N composite chemical shift perturbation, Val 56 (Vinexin β SH3.3 domain [2]; Vinexin β residue Val 56): 1.319
Molecule: CC(C)[C@H](NC(=O)[C@H](CCCNC(=N)N)NC(=O)[C@@H]1CCCN1C(=O)[C@@H]1CCCN1C(=O)[C@@H]1CCCN1C(=O)[C@@H]1CCCN1C(=O)[C@@H]1CCCN1C(=O)[C@H](CO)NC(=O)[C@@H]1CCCN1C(=O)[C@@H]1CCCN1C(=O)[C@@H]1CCCN1C(=O)[C@@H]1CCCN1C(=O)[C@@H]1CCCN1)C(=O)N[C@@H](Cc1ccc(O)cc1)C(=O)N[C@@H](CCCCN)C(=O)O [non-fluorinated peptide] (H-PPPPPSPPPPPRVYK-OH; N-terminus and C-terminus assumed)

Kd [4]: 74 ± 25 µM
B2: non-fluorinated reference peptide (peptide)
chain: PPPPPSPPPPPRVYK
modifications: Synthetic RAR-gamma-based peptide. Sequence converted from the three-letter residue list in Table 1 (Pro1-5, Ser6, Pro7-11, Arg12-Val13-Tyr14-Lys15), with plain proline at positions 4 and 8. The …
